Assay results from patent US7678826B2, “Organic compounds for the treatment of inflammatory or allergic conditions” (priority 2005, dated 2010).

What was measured:
[1] = molecular target: T1, CRTh2 receptor (Homo sapiens, UniProt Q9Y5Y4); assay: Filtration binding assay: competition with [3H]-PGD2 on CHO.K1-CRTh2 membranes (results text calls it SPA binding assay); conditions: [3H]-PGD2 2.5 nM, Cheng-Prussoff
T1 construct: expressed in transfected cells; host or cells: CHO.K1 (Chinese Hamster Ovary) cells, CHO.K1-CRTh2
T1 sequence (Q9Y5Y4 1-395): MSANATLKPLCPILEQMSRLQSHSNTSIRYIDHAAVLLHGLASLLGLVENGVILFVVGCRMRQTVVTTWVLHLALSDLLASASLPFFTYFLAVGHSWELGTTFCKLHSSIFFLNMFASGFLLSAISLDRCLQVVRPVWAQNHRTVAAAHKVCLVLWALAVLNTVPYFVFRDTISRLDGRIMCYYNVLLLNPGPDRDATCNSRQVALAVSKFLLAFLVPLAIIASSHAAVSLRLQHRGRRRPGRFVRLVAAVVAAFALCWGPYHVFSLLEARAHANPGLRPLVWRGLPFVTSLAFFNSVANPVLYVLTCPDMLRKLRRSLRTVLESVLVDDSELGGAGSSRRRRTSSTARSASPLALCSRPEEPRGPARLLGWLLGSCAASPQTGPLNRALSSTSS
Experimental: The binding of CRTh2 antagonists is determined using membranes prepared from human CRTh2-expressing Chinese Hamster Ovary cells (CHO.K1-CRTh2). To produce cell membranes CHO.K1-CRTh2 cells cultured in roller bottles are harvested using cell dissociation buffer (Invitrogen). The cells are pelleted by centrifugation (167 g, 5 minutes). The cell pellet is incubated in hypotonic buffer (15 mM Tris-OH, 2 mM MgCl2, 0.3 mM EDTA, 1 mM EGTA, 1× Complete™ tablet) at 4° C. for 30 minutes. At 4° C. cells are homogenized using a Polytron® (IKA Ultra Turrax T25) for 5 bursts of 1 second. The homogenate is centrifuged (Beckman Optima TM TL Ultracentrifuge, 48,000 g, 30 minutes at 4° C.). The supernatant is discarded and the membrane pellet re-suspended in homogenisation buffer (75 mM Tris-OH, 12.5 mM MgCl2, 0.3 mM EDTA, 1 mM EGTA, 250 mM Sucrose, 1× Complete™ tablet. Membrane preparations are aliquoted and stored at […]. The protein content is estimated using Bradford Protein Assay Dye (Bio Rad).
The binding of [^3H]-PGD2 (157 Ci/mmol) to CHO.K1-CRTh2 membranes is determined in the absence (total binding) and presence (non-specific binding) of unlabelled PGD2 (1 μM). Subtraction of the cpm (counts per minute) of [^3H]-PGD2 binding in presence of excess unlabelled PGD2 from that observed in the absence of excess unlabelled PGD2 is defined as specific binding. Active CRTh2 antagonists are able to compete with [^3H]-PGD2 for binding to the CRTh2 receptor and are identified in a decrease in the number of cpm bound.
The assay is performed in Greiner U-bottomed 96 well-plates, in a final volume of 100 μL/well. CHO.K1-CRTh2 membranes were diluted in assay buffer (10 mM HEPES-KOH (pH 7.4), 1 mM EDTA and 10 mM MnCl2) and 10 μμg are added to each well. [^3H]-PGD2 is diluted in assay buffer and added to each well at a final concentration of 2.5 nM. To determine non-specific binding, [3H]-PGD2 binding to the CRTh2 receptor is competed with using unlabelled PGD2 at a final well concentration of 1 μM. The experiment is done in triplicate, with reagents added to the wells as follows: • 25 μL assay buffer for total binding or • 25 μL PGD2 to determine non-specific binding • 25 μL [^3H]PGD2 • […] membranes • 25 μL test compound in DMSO/assay buffer
The plates are incubated at RT on a shaker for 1 hour, and then harvested (Tomtec Harvester 9600) onto GF/C filter plates using wash buffer (10 mM HEPES-KOH, pH 7.4). […] Plates are then counted using a Packard Top Count instrument, Plates are then read on the Packard Topcount with the 3H Scintillation program (1 minute/well).
Ki (dissocation constant for the inhibition) values for the CRTh2 antagonists are reported. Ki values are determined using Sigma Plot™ software, using the Cheng-Prussoff equation. […]

[2] = molecular target: T1, CRTh2 receptor; assay: CRTH2 cAMP functional assay: inhibition of PGD2-mediated attenuation of forskolin-induced cAMP accumulation in CHO.K1-CRTh2 cells; type: cell-based; conditions: 10 nM PGD2, 5 μM forskolin, cAMP Alphascreen
Experimental: Ki (dissocation constant for the inhibition) values for the CRTh2 antagonists are reported. Ki values are determined using Sigma Plot™ software, using the Cheng-Prussoff equation. Ki=IC50/1+[S]/Kd, where S is the concentration of radioligand and Kd is the dissociation constant. CRTH2 cAMP Functional Assay Protocol
This assay is conducted in CHO.K1-CRTh2 cells. cAMP is generated in the cell by stimulating cells with 5 μM forskolin, an adenylate cyclase activator. PGD2 is added to activate the CRTh2 receptor which results in the attenuation of the forskolin-induced cAMP accumulation. Potential CRTh2 antagonists are tested for their ability to inhibit the PGD2-mediated attenuation of the forskolin-induced cAMP accumulation in CHO.K1-CRTh2 cells.
For each concentration value on the dose-response curve, test compounds are prepared in assay stimulation buffer (HBSS, 5 mM HEPES, 10 μM IBMX±0.1% human serum albumin) containing DMSO (3% vol/vol) and 5 μL/well is added to an assay plate (384-well white optiplate).
CHO.K1-CRTh2 cultured in tissue culture flasks are washed with PBS and harvested with dissociation buffer. Cells are washed with PBS and resuspended in stimulation buffer to a concentration of 0.4×10^6/mL and added to the assay plate (10 μL/well).
The assay plate is incubated at room temperature on a shaker for 15 minutes.
A mix of agonist (10 nM Prostaglandin D2) and 5 μM forskolin is prepared in assay stimulation buffer and added to the assay plate (5 μL/well).
In addition, a cAMP standard is serially diluted in assay stimulation buffer and added to separate empty wells on the assay plate (20 μL/well). The cAMP standard allows for the quantification of cAMP generated in CHO.K1-CRTH2 cells.
The assay plate is incubated at room temperature on a shaker for 60 minutes.
Cell lysis buffer (Lysis buffer: Milli-Q H2O, 5 mM HEPES, 0.3% Tween-20, 0.1% human serum albumin) is added to a bead mix (containing Alphascreen™ anti-cAMP acceptor beads 0.06 units/μL, Alphascreen™ streptavidin-coated donor beads 0.06 units/μL, biotinylated cAMP 0.06 units/μL, 10 μM IBMX) is prepared under darkened conditions 60 minutes prior to addition to the assay plate. The resulting lysis mix is added to all wells of the assay plate (40 μL/well).
The assay plate is sealed with Topseal-S™ and incubated in the dark at room temperature on a shaker for 45 minutes. The plate is then counted using a Packard Fusion™ instrument.
The resulting counts per minute are converted to nM cAMP by using the prepared cAMP standard curve. IC50 values (concentration of CRTh2 antagonist required to inhibit 50% of the PGD2-mediated attenuation of forskolin-induced cAMP accumulation in CHO.K1-CRTh2 cells) are then determined using Prism™ software.

SMILES | Ki [1] [nM] | IC50 [2] [nM]
CC(Oc1ccc(Cl)cc1Cc1cc(Cl)ccc1OCC(=O)O)C(=O)N1CCCC1 (racemic) [Example 1, {4-Chloro-2-[5-chloro-2-(1-methyl-2-oxo-2-pyrrolidin-1-yl-ethoxy)-benzyl]-phenoxy}-acetic acid] | 40.3 | 22.5
CC(Oc1ccccc1Cc1cc(Cl)ccc1OCC(=O)O)C(=O)N1CCCC1 (single isomer, unassigned) [8 (enantiomer 1), {4-Chloro-2-[2-((R/S)-1-methyl-2-oxo-2-pyrrolidin-1-yl-ethoxy)-benzyl]-phenoxy}-acetic acid] | 60.2 | 25
CC(Oc1ccc(Cl)cc1Cc1cc(Cl)ccc1OCC(=O)O)C(=O)N1CCOCC1 (centres unmarked) [Example 3, {4-Chloro-2-[5-chloro-2-(1-methyl-2-morpholin-4-yl-2-oxo-ethoxy)-benzyl]-phenoxy}-acetic acid] | 95 | 22.5
CC(Oc1ccccc1Cc1cc(Cl)ccc1OCC(=O)O)C(=O)N1CCCC1 (centres unmarked) [Example 7, {4-Chloro-2-[2-(1-methyl-2-oxo-2-pyrrolidin-1-yl-ethoxy)-benzyl]-phenoxy}acetic acid] | 82.4 | 37.5
